Test: Ascorbic acid oxidation assay
Type: physicochemical
Settings: 20 μM chelate (30 mol %), 67 μM ascorbic acid in PBS, 45 minutes, FIG. 1
Protocol: The UV-Vis spectrum of an ascorbic acid solution (67 μM, 12 μg·mL-1) in phosphate buffered saline (PBS) (3 mL) was recorded. The absorbance intensity at λmax=265 nm was observed. An aliquot (30 μL) of iron chelate of ethylenediaminetetraacetic acid (FeEDTA) in PBS (2 mM, 0.7 mg·mL-1) was added to afford a catalytic quantity of FeEDTA (20 μM, 30 mol %) with respect to ascorbic acid. The absorbance intensity (λmax=265 nm) was recorded at intervals of 1 minute for a period of 45 minutes and the data normalized to the t0 absorbance. The experiment was then repeated identically using iron chelate complex FeHBEDP(OH)3 (20 μM, 30 mol %).

Compound: O=C([O-])CN(CCN(CC(=O)[O-])CC(=O)[O-])CC(=O)[O-].[Fe+3] [FeEDTA, iron chelate of ethylenediaminetetraacetic acid]
- consumption of ascorbic acid: consumes ascorbic acid completely
